Results: patent US6399570B1, “Antimicrobial/endotoxin neutralizing polypeptide” (priority 1999, dated 2002)

Legend:
[1] = tested on: lipid A from E. coli 0113; experiment: LAL assay, neutralization of lipid A endotoxin activity (FIG. 6); format: biochemical; details: lipid A 30 ng/ml
Protocol: The lipid A region of the LPS molecule is primarily responsible for the inflammatory and toxic effects of LPS. When LPS is released from the microbe, the lipid A portion may become more accessible. The following assays were performed to determine the potential of various amino-terminal LF polypeptides to neutralize the endotoxic activity of the lipid A portion of LPS. LF, the 6 kDa fragment of LF, LF-33, LF-27, and polymyxin B were each tested for the ability to neutralize the endotoxin activity of lipid A from E. coli 0113 (30 ng/ml), using a LAL assay. […] The endotoxin activity of the smaller fragments of LF indicate that endotoxin-neutralizing activity of these small polypeptides is masked when in the context of the intact LF molecule.

E. coli 0111 = experiment: Potentiation of Rifampicin by LF polypeptides; details: 5 μM polypeptide + 0.9 μg/ml rifampicin, 6 hr
Protocol: E. coli cultures were exposed to sub-optimal doses of Rifampicin in the presence or absence of sub-optimal doses of the indicated polypeptides (FIG. 5), and were incubated for 6 hours, at which point CFU were determined.
E. coli 0111 were grown overnight as described above. Overnight cultures were then diluted 1:16,000 in 1% BP/PBS containing 0.9 μg/ml Rifampicin (Sigma-Aldrich Fine chemicals) and 5 μM LF polypeptides as indicated. Control cultures were those not exposed to any polypeptide. The diluted cultures were then incubated at 37° C. for 6 hr with aeration by shaking. The number of viable bacteria were then determined by dilution plating samples from each group and subsequently counting colony forming units (CFU). All values represent the average of duplicate independent experiments.

Lipid A = experiment: Limulus ELISA, ENC50 against Lipid A; format: biochemical, E. coli K12
Protocol: The peptide-mediated inhibition of endotoxin-induced Limulus amebocyte lysate (LAL) coagulation was measured with a sensitive LAL assay (Zhang et al., J. Clin. Microbiol. 32: 416-422 (1994)). Limulus ELISA is an endotoxin assay based on activation of the LAL coagulation by endotoxin and detection of the generated peptide-C immunoreactivity with an ELISA using a monoclonal antibody to the polypeptide. Endotoxin was defined to be neutralized when it lost its ability to activate the LAL enzymes. The 50% endotoxin-neutralizing concentration (ENC50) reflects the potency of an anti-endotoxin agent; a low ENC50 indicates high potency. Table 2 lists the determined ENC50 value of each anti-endotoxin agent against lipid A and four different types of LPS. The potency of each anti-endotoxin agent varied depending on the type of endotoxin. […] The only difference between the sequence of LF-33 and LF-27 is that LF-27 lacks the first six residues (GRRRRS) at the N-terminus of LF-33. Remarkably, this deletion led to dramatic loss of the endotoxin-neutralizing capacity of the polypeptide in this assay. Binding of serum proteins to endotoxin neutralizes the endotoxin activity in this assay by preventing endotoxin from activating LAL (Emancipator et al., Infect. Immun. 60: 596-601 (1992)).
LPS. […] LPS (purity >99%) from Neisseria meningitidis was prepared from the group B strain #6275 and its potency was 25 EU/ng. […] The potency of the above endotoxin was determined with the Limulus enzyme-linked immunosorbent assay (ELISA, 43) in comparison with US Pharmacopeia reference standard endotoxin EC-5.
Briefly, 25 μl endotoxin solution (200 EU/ml) was mixed with an equal volume of test materials in a series of two-fold dilution in 0.15 M NaCl in a sterile 96-well tissue culture plate (Nunc A/S, Roskilde, Denmark), and incubated at 37° C. for 1 h in a dry-air incubator. […] The endotoxin activity was then quantified with the use of Limulus ELISA (Zhang et al., J. Clin. Microbiol. 32: 416-422 (1994)). […] The high sensitivity of the assay allowed for very low levels of the endotoxin activity to be detected. […]

Row | Compound | lipid A neutralizing activity [1] | effect on the antimicrobial activity of rifampicin (viable bacteria) (E. coli 0111) | fold less potent than LF-33 at neutralizing lipid A (Lipid A) | IC50 (Lipid A; endotoxin 200 EU/ml, mean +/− SD) [nM]
1 | 6 kDa polypeptide: 6 kDa fragment produced by cathepsin D digestion of human LF, amino acids 1-49 of SEQ ID NO: 2 (GRRRRSVQWCAVSQPEATKCFQWQRNMRKVRGPPVSCIKRDSPIQCIQA; listed as Homo sapiens) | neutralized lipid A | more than three orders of magnitude |  | 
2 | CSCC[C@H](NC(=O)[C@H](CC(N)=O)NC(=O)[C@H](CCCNC(=N)N)NC(=O)[C@H](CCC(N)=O)NC(=O)[C@H](Cc1c[nH]c2ccccc12)NC(=O)[C@H](CCC(N)=O)NC(=O)[C@H](Cc1ccccc1)NC(=O)[C@H](CS)NC(=O)[C@H](CCCCN)NC(=O)[C@@H](NC(=O)[C@H](C)NC(=O)[C@H](CCC(=O)O)NC(=O)[C@@H]1CCCN1C(=O)[C@H](CCC(N)=O)NC(=O)[C@H](CO)NC(=O)[C@@H](NC(=O)[C@H](C)NC(=O)[C@H](CS)NC(=O)[C@H](Cc1c[nH]c2ccccc12)NC(=O)[C@H](CCC(N)=O)NC(=O)[C@@H](N)C(C)C)C(C)C)[C@@H](C)O)C(=O)N[C@@H](CCCNC(=N)N)C(=O)N[C@@H](CCCCN)C(=O)N[C@H](C(=O)N[C@@H](CCCNC(=N)N)C(=O)NCC(=O)N1CCC[C@H]1C(=O)O)C(C)C [LF-27] | neutralized lipid A | no significant effect | approximately 10 fold | 630
